Key:
Type in all cases: cell-based
ENT1 [1] = biological target: T1, ENT1 (Homo sapiens, UniProt Q99808); assay: [3H]uridine uptake in PK15NTD/ENT1 cells; settings: [3H]uridine 1 μM, 1 min, PK15NTD/ENT1 cells; read-out: IC50 against ENT1
T1 construct: expressed in transfected cells
T1 sequence (Q99808 1-456): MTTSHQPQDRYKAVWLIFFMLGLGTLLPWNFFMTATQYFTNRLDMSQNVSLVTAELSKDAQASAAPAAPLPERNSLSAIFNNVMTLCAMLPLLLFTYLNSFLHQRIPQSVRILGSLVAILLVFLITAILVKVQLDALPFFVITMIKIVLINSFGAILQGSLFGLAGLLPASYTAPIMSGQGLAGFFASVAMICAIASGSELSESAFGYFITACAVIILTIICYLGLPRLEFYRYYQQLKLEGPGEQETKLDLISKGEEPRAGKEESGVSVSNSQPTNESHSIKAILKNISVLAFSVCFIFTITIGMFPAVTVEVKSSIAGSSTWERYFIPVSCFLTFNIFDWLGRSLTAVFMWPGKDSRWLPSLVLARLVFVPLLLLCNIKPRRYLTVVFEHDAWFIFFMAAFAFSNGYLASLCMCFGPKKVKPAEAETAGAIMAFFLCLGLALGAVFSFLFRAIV
Method: (§1) Nucleoside transporter-deficient porcine kidney fibroblast cells (PK15NTD) stably transfected with cloned human ENT1 or ENT2 ([Ward et al., 2000]) were used as the in vitro models. The cells were cultured in Dulbecco’s Modified Eagle’s Medium (DMEM) supplemented with 10% (v/v) foetal bovine serum, 0.5 mg/ml geneticin, 100 units/ml penicillin, 100 μg/ml streptomycin and 0.25 μg/ml of amphotericin B at 37°C in 5% CO2/95% air.
(§2) Confluent monolayers of PK15NTD/ENT1 and PK15NTD/ENT2 cells in 24-well plates were washed thrice with HEPES-buffered Ringer’s solution containing (mM): 135 NaCl, 10 glucose, 5 KCl, 5 HEPES, 3.33 NaH2PO4, 1.0 CaCl2, 1.0 MgCl2, 0.83 Na2HPO4; pH 7.4. The cells were incubated with different concentrations of FPMINT analogues (from 10 nM to 100 μM) containing [^3H]uridine (2 μCi/ml, 1 μM) for 1 min. Passive uridine uptake was determined by incubating the cells in HEPES-buffered Ringer’s solution containing [^3H]uridine in the presence of 0.5 mM NBMPR. The cells were rapidly washed five times with ice-cold phosphate-buffered saline (PBS). After air-drying, the cells were solubilised by overnight incubation in 500 μl of 5% Triton-X100. Next, 300 μl of the cell lysates were mixed with 2 ml of scintillation liquid. The radioactivity of each sample was quantified by a scintillation counter. The protein content in each well was determined spectrophotometrically using a commercial bicinchoninic acid assay (Pierce Biochemicals, Rockford, IL). Uptake values were expressed as picomoles of [^3H]uridine per milligram of cellular protein per minute.
(§3) All data were analysed by GraphPad Prism software (San Diego, CA, United States). Data are expressed as mean ± standard error (SE) of three experiments performed in triplicate. The IC50 values were determined from the dose-response curves fitted with a logistic function. For the kinetic study of [^3H]uridine uptake, apparent K m and V max values were determined from the Michaelis-Menten equation, and K i was determined from the X-intercept of linear regression. Analysis of variance and Student’s t-test were performed for multiple and paired variables, respectively. p values of <0.05 were considered to be statistically significant.

ENT2 = biological target: T2, ENT2 (Homo sapiens, UniProt Q14542); assay: Kinetic study of [3H]uridine uptake in PK15NTD/ENT2 cells
T2 construct: expressed in transfected cells
T2 sequence (Q14542 1-456): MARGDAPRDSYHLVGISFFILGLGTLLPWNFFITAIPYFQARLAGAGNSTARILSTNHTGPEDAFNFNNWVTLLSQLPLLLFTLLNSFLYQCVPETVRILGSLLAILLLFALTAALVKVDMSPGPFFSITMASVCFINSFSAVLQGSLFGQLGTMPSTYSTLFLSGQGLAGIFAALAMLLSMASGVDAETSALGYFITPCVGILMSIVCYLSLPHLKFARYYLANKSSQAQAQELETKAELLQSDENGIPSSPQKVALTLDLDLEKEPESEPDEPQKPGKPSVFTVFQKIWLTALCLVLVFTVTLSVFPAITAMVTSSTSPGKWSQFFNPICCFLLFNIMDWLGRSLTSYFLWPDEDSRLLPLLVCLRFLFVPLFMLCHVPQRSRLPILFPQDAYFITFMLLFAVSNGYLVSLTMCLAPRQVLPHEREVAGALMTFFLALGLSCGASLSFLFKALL
Method: as §1, §2, §3
Compound 3c was selected for further investigation. The kinetic study of [^3H]uridine transport was performed by measuring the concentration-dependent uptake of [^3H]uridine. This study could provide clue about the mode of action of compound 3c. The uptake of [^3H]uridine by ENT1 and ENT2 was saturable and conformed to Michaelis-Menten kinetics. Compound 3c decreased the V max of ENT1 but had no effect on K m . […] The slopes of the linear 1/V versus 1/[S] plots increased with the concentration of compound 3c (Figure 4B).
FIGURE 4 Competitive inhibition of ENT1 and ENT2 by compound 3c. Kinetic study of [^3H]uridine uptake (0.1 μM–1 mM) was measured in (A) PK15NTD/ENT1 and (D) PK15NTD/ENT2 cells in the presence of various concentrations of compound 3c (0, 0.01, 0.1, 1 and 10 µM) (B,E) 1/V versus 1/[S] plots of each curve in (A) and (D), respectively (C,F) The plot of slopes of each line in (B) and (E), respectively, versus the concentration of compound 3c. Data are presented as mean ± SE of three experiments.

ENT1 [2] = biological target: T1, ENT1; assay: Wash-out reversibility of [3H]uridine uptake inhibition in PK15NTD/ENT1 cells; settings: 50 µM, incubation 1–60 min, washed five times
Method: To determine whether the inhibitory effects of compound 3c were reversible or irreversible, PK15NTD/ENT1 and PK15NTD/ENT2 cells were incubated with 50 µM of compound 3c for different time periods (1–60 min). The cells were then washed five times with buffer. After wash-out for every single time [^3H]uridine uptake was measured. […] The longer the incubation time with compound 3c, the more difficult it was to wash-out the inhibitory effects of compound 3c.
FIGURE 6 Reversibility of the inhibitory effects of compound 3c on ENT1 and ENT2 (A) PK15NTD/ENT1 and (B) PK15NTD/ENT2 cells were incubated with 50 μM of compound 3c or a vehicle (0.5% DMSO, as a control) for different time (0–60 min) The cells were then washed five times. After wash-out for every single time [^3H]uridine uptake (1 μM, 2 μCi/ml) was measured. Data are presented as mean ± SE of three experiments. ^* p < 0.05 compared with the fifth wash.

**Q.** What does the source list for `Cc1cccc(Nc2nc(N)nc(CN3CCN(c4ccc(F)cc4)CC3)n2)c1` [Compound 3c]?
**A.** IC50 (ENT1 [1]): 2380 nM; apparent Vmax of ENT2 (ENT2; 0.01 µM compound 3c): 1775 ± 76.83 pmol/mg protein/min; apparent Vmax of ENT2 (ENT2; 0.1 µM compound 3c): 1295 ± 78.09 pmol/mg protein/min; apparent Vmax of ENT2 (ENT2; 1 µM compound 3c): 918.6 ± 47.48 pmol/mg protein/min; apparent Vmax of ENT2 (ENT2; 10 µM compound 3c): 534.6 ± 28.21 pmol/mg protein/min; mode of inhibition of ENT2-mediated uridine transport (ENT2; decreased Vmax, apparent Km unchanged): non-competitive inhibitor; Ki (ENT2; x-intercept of slopes versus concentration plot): 540 nM; reversibility of inhibitory effect on ENT1 by washing (ENT1 [2]): only partially reversed by washing
